The text below walks through data of US12187702B2, “Sulfonamideurea compounds” (Inflazome Limited, priority 2018, dated 2025).

Structures can show the parent of a compound that is named as a salt.

Data set [1] in a line: PK, intravenous administration. Type of data set: in vivo, male Sprague Dawley rats. Particulars: male, Sprague Dawley, plasma, rat; for clearance / half-life: dose per compound as in Table 3; for AUC: dose per compound as in Table 3 (0.08-1.86 mg/kg); for Vd: dose per compound as in Table 3, read-out: Vdss. As to the method: Pharmacokinetic parameters were determined in male Sprague Dawley rats (Charles River, UK, 250-350 g; or Vital River Laboratory Animal Technology Co Ltd, Beijing, China, 7-9 weeks old). Animals were individually housed during the study and maintained under a 12 h light/dark cycle.
For intravenous administration, compounds were formulated as a solution in water or DMSO:PBS [10:90] in 2 mL/kg dosing volume and administered via tail or jugular vein. For oral administration, compounds were formulated as a solution in 0.5% w/v methyl cellulose in water in 5 mL/kg dosing volume and administered orally.
Serial blood samples (about 120-300 μL) were taken from each animal at each of 8 time-points post dose (0.083, 0.25, 0.5, 1, 2, 4, 8 and 24 h) or at each of 12 time-points post dose (0.03, 0.1, 0.17, 0.25, 0.5, 1, 2, 4, 6, 8, 12 and 24 h) or pre-dose and at each of 9 time-points post dose (0.25, 0.5, 1, 2, 4, 6, 8, 12 and 24 h). Samples were held on ice for no longer than 30 minutes before centrifugation (10,000 rpm (8,385 g) for 3 minutes; or 5,696 rpm (3,000 g) for 15 minutes) for plasma generation. Plasma was frozen on dry ice prior to bioanalysis. PK parameters were generated from LC-MS/MS data using Dotmatics or Phoenix WinNonlin 6.3 software.

The target in data set [2] is T1, NLRP3 (Homo sapiens, UniProt Q96P20). As to the kind of experiment: Human whole blood IL-1β release assay (LPS + nigericin, AlphaLisa). Type of data set: cell-based. Set-up: Plate out 80 μl of whole blood containing 1 μg/ml of LPS; from tissue; host or cells: human whole blood from healthy donors. A digest of the protocol:
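Healthy-donor Li-heparin whole blood containing 1 μg/ml LPS incubated with compound (8-point half-log dilution, 10 μM top) for 3 h at 37 °C, then with 10 μM nigericin for 1 h. Supernatant IL-1β measured by AlphaLisa; IC50 from 4-parameter variable-slope fit.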

The target of data set [3] is T1, NLRP3. In words: THP-1 cells pyroptosis assay (LPS + nigericin, resazurin read-out). Type of data set: cell-based. More on the design: Seed THP-1 cells (25,000 cells/well) containing 1.0 μg/ml LPS; host or cells: THP-1 cells. A digest of the protocol:
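THP-1 cells (25,000/well) primed with 1 μg/ml LPS in serum-free RPMI, treated 3 h with compound (8-point half-log series, 10 μM top, 0.1% DMSO), then 5 μM nigericin for 1 h at 37 °C. Viability read by 100 μM resazurin fluorescence after 1-2 h; IC50 from 4-parameter fit.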

[4] abbreviates: human whole blood, 1 μg/ml LPS, 10 μM nigericin, IL-1β release, read-out: HWB IC50.
The mark [5] stands for this setting: THP-1 cells, 1 μg/ml LPS, 5 μM nigericin, NLRP3 inhibitory activity, read-out: THP IC50.

T1 sequence (Q96P20 whole entry): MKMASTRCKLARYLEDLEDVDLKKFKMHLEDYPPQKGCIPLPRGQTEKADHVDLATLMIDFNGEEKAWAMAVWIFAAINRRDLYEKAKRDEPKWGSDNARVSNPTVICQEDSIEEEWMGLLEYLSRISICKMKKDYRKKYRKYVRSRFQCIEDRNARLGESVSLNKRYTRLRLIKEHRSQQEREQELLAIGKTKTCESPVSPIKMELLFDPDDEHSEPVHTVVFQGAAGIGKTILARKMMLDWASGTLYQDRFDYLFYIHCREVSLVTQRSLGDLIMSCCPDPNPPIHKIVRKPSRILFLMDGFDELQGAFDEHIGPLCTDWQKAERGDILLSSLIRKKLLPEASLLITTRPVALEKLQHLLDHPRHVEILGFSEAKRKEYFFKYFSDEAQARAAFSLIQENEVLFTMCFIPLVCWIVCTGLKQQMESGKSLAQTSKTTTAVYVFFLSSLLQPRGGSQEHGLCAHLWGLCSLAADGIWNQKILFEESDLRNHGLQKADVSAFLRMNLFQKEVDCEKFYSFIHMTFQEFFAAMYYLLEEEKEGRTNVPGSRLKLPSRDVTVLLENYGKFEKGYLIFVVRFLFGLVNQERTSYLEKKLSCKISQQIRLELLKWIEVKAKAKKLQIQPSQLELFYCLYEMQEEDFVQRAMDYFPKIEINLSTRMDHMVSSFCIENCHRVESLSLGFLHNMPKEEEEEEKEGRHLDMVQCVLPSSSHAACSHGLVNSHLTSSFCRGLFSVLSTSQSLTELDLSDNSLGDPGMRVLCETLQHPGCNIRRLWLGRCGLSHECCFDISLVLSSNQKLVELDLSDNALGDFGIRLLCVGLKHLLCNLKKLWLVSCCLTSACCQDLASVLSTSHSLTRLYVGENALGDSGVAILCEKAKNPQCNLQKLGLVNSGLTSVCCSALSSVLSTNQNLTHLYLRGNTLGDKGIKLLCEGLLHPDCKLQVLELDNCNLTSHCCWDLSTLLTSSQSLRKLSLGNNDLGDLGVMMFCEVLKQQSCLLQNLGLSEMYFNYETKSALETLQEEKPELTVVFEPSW

On to `CN(C)CCN(C)S(=O)(=O)NC(=O)Nc1c2c(cc3c1CCC3)CCC2` [Example 6, potassium salt], for which, in data set [1], the clearance is 2.3 mL/min/kg, the half-life was 162 min, the AUC is 7270 ng·h/mL and the Vd stood at 0.35 L/kg. In addition, in data set [2] (setting [4]), the IC50 was less than 500 nM. The IC50 in data set [3] (setting [5]) is less than 500 nM.

As to `CN(C)CCCNS(=O)(=O)NC(=O)Nc1c2c(cc3c1CCC3)CCC2` [Example 81, 3-(N-(3-(Dimethylamino)propyl)sulfamoyl)-1-(1,2,3,5,6,7-hexahydro-s-indacen-4-yl)urea, potassium salt], the IC50 in data set [2] (setting [4]) and in data set [3] (setting [5]) was less than 500 nM in each case.

Take `CC(C)N(CCN(C)C)S(=O)(=O)NC(=O)Nc1c2c(cc3c1CCC3)CCC2` [Example 83, 3-(N-(2-(Dimethylamino)ethyl)-N-isopropylsulfamoyl)-1-(1,2,3,5,6,7-hexahydro-s-indacen-4-yl)urea, potassium salt]: the IC50 in data set [2] (setting [4]) is less than 5000 nM; in data set [3] (setting [5]) it was less than 1000 nM.

As for `CN1CC(CN(C)S(=O)(=O)NC(=O)Nc2c3c(cc4c2CCC4)CCC3)C1` [Example 84, 3-(N-Methyl-N-((1-methylazetidin-3-yl)methyl)sulfamoyl)-1-(1,2,3,5,6,7-hexahydro-s-indacen-4-yl)urea, potassium salt], the half-maximal inhibitory concentration (IC50) in data set [2] (setting [4]) is less than 1000 nM; in data set [3] (setting [5]), less than 500 nM.

For `CCN1CC2CN(S(=O)(=O)NC(=O)Nc3c4c(cc5c3CCC5)CCC4)CC21` (stereo not shown) [Example 85, 6-Ethyl-N-((1,2,3,5,6,7-hexahydro-s-indacen-4-yl)carbamoyl)-3,6-diazabicyclo[3.2.0]heptane-3-sulfonamide], the half-inhibitory concentration (IC50) in data set [2] (setting [4]) and in data set [3] (setting [5]) was less than 500 nM throughout.

Turning to `CN1CC2CN(S(=O)(=O)NC(=O)Nc3c4c(cc5c3CCC5)CCC4)CC21` (stereo not shown) [Example 86, N-((1,2,3,5,6,7-Hexahydro-s-indacen-4-yl)carbamoyl)-6-methyl-3,6-diazabicyclo[3.2.0]heptane-3-sulfonamide], the IC50 in data set [2] (setting [4]) and in data set [3] (setting [5]) was less than 500 nM each time.

Consider `CC(C)N1CC2CN(S(=O)(=O)NC(=O)Nc3c4c(cc5c3CCC5)CCC4)CC21` (stereo not shown) [Example 87, N-((1,2,3,5,6,7-Hexahydro-s-indacen-4-yl)carbamoyl)-6-isopropyl-3,6-diazabicyclo[3.2.0]heptane-3-sulfonamide, potassium salt], for which the IC50 in data set [2] (setting [4]) was less than 5000 nM; in data set [3] (setting [5]), less than 500 nM.

`CN1CC[C@H](NS(=O)(=O)NC(=O)Nc2c3c(cc4c2CCC4)CCC3)C1` [Example 88, 3-((S)—N-(1-Methylpyrrolidin-3-yl)sulfamoyl)-1-(1,2,3,5,6,7-hexahydro-s-indacen-4-yl)urea, potassium salt]: the IC50 is less than 500 nM in data set [2] (setting [4]) and less than 1000 nM in data set [3] (setting [5]).

Consider `CN1CC[C@@H](NS(=O)(=O)NC(=O)Nc2c3c(cc4c2CCC4)CCC3)C1` [Example 89, 3-((R)—N-(1-Methylpyrrolidin-3-yl)sulfamoyl)-1-(1,2,3,5,6,7-hexahydro-s-indacen-4-yl)urea, potassium salt], for which the IC50 in data set [2] (setting [4]) and in data set [3] (setting [5]) was less than 500 nM each time.

For the compound `CN1CCCN(S(=O)(=O)NC(=O)Nc2c3c(cc4c2CCC4)CCC3)CC1` [Example 90, N-((1,2,3,5,6,7-Hexahydro-s-indacen-4-yl)carbamoyl)-4-methyl-1,4-diazepane-1-sulfonamide, potassium salt], the 50% inhibitory concentration (IC50) in data set [2] (setting [4]) was less than 500 nM; in data set [3] (setting [5]) it was less than 1000 nM.

For the compound `CN1CC2(CCN2S(=O)(=O)NC(=O)Nc2c3c(cc4c2CCC4)CCC3)C1` [Example 91, N-((1,2,3,5,6,7-Hexahydro-s-indacen-4-yl)carbamoyl)-6-methyl-1,6-diazaspiro[3.3]heptane-1-sulfonamide, potassium salt], the IC50 in data set [2] (setting [4]) is less than 5000 nM; in data set [3] (setting [5]), less than 1000 nM.

With `CN1C[C@H]2CN(S(=O)(=O)NC(=O)Nc3c4c(cc5c3CCC5)CCC4)C[C@H]21` [Example 92, (1S,5S)—N-((1,2,3,5,6,7-Hexahydro-s-indacen-4-yl)carbamoyl)-6-methyl-3,6-diazabicyclo[3.2.0]heptane-3-sulfonamide, potassium salt], the IC50 in data set [2] (setting [4]) and in data set [3] (setting [5]) was less than 500 nM each time.

As to `CN1C[C@@H]2CN(S(=O)(=O)NC(=O)Nc3c4c(cc5c3CCC5)CCC4)C[C@@H]21` [Example 93, (1R,5R)—N-((1,2,3,5,6,7-Hexahydro-s-indacen-4-yl)carbamoyl)-6-methyl-3,6-diazabicyclo[3.2.0]heptane-3-sulfonamide, potassium salt], the IC50 in data set [2] (setting [4]) and in data set [3] (setting [5]) was less than 500 nM in each case.

Take `CN1CC2CN(S(=O)(=O)NC(=O)Nc3c4c(cc5c3CCC5)CCC4)C2C1` (stereo not shown) [Example 94, N-((1,2,3,5,6,7-Hexahydro-s-indacen-4-yl)carbamoyl)-3-methyl-3,6-diazabicyclo[3.2.0]heptane-6-sulfonamide, potassium salt]: the IC50 in data set [2] (setting [4]) is less than 1000 nM; in data set [3] (setting [5]), less than 500 nM.

Consider `CN1CCC[C@@H]1CN(C)S(=O)(=O)NC(=O)Nc1c2c(cc3c1CCC3)CCC2` [Example 95, 3-((R)—N-Methyl-N-((1-methylpyrrolidin-2-yl)methyl)sulfamoyl)-1-(1,2,3,5,6,7-hexahydro-s-indacen-4-yl)urea, potassium salt], for which the IC50 in data set [2] (setting [4]) and in data set [3] (setting [5]) was less than 500 nM throughout.

`CN1CCCC2CN(S(=O)(=O)NC(=O)Nc3c4c(cc5c3CCC5)CCC4)CC21` (stereo not shown) [Example 97, N-((1,2,3,5,6,7-Hexahydro-s-indacen-4-yl)carbamoyl)-1-methyloctahydro-6H-pyrrolo[3,4-b]pyridine-6-sulfonamide]: the IC50 in data set [2] (setting [4]) and in data set [3] (setting [5]) was less than 500 nM throughout.

On to `CN1CCC2CCN(S(=O)(=O)NC(=O)Nc3c4c(cc5c3CCC5)CCC4)CC21` (stereo not shown) [Example 98, N-((1,2,3,5,6,7-Hexahydro-s-indacen-4-yl)carbamoyl)-1-methyloctahydro-6H-pyrrolo[2,3-c]pyridine-6-sulfonamide], for which the 50% inhibitory concentration (IC50) in data set [2] (setting [4]) and in data set [3] (setting [5]) was less than 5000 nM in each case.

With `COc1cc(-c2ccc3c(c2NC(=O)NS(=O)(=O)N2CC4CCN(C)C4C2)CCC3)ccn1` (stereo not shown) [Example 106], in data set [1], the clearance stood at 6 mL/min/kg, the half-life was 337 min, the AUC was 5150 ng·h/mL and the Vd was 0.84 L/kg.

As for `CC(C)c1cc(F)cc(-c2ccncc2)c1NC(=O)NS(=O)(=O)N(C)C1CCN(C)C1` (stereo not shown) [Example 108], the IC50 in data set [2] (setting [4]) and in data set [3] (setting [5]) was less than 500 nM in each case.

As for `CN1CCC[C@@H]1CN(C)S(=O)(=O)NC(=O)Nc1c2c(cc3c1CCC3)C=CC2` [Example 112, (R)—(N-Methyl-N-((1-methylpyrrolidin-2-yl)methyl)sulfamoyl)((1,2,3,5-tetrahydro-s-indacen-4-yl)carbamoyl)amide, potassium salt], the results for the IC50 in data set [2] (setting [4]) and in data set [3] (setting [5]) were less than 5000 nM and less than 1000 nM, respectively.

Take `Cc1cc2c(c(NC(=O)NS(=O)(=O)N(C)C)c1-c1ccnc(OC3CCN(C)CC3)c1)CCC2` [Example 113, N-((6-Methyl-5-(2-((1-methylpiperidin-4-yl)oxy)pyridin-4-yl)-2,3-dihydro-1H-inden-4-yl)carbamoyl)N,N-dimethylsulfamide]: the half-inhibitory concentration (IC50) in data set [2] and in data set [3] was less than 500 nM in each case.

As to `COc1cc(-c2c(C)cc3c(c2NC(=O)NS(=O)(=O)N(C)C)CCC3)ccn1` [Example 114, N-((5-(2-Methoxypyridin-4-yl)-6-methyl-2,3-dihydro-1H-inden-4-yl)carbamoyl)(N,N-dimethylsulfamoyl)amide], the IC50 in data set [2] (setting [4]) is less than 1000 nM; in data set [3] (setting [5]), less than 500 nM.

For `CN1CCC[C@H]1CN(C)S(=O)(=O)NC(=O)Nc1c2c(cc3c1CCC3)CCC2` [Example 115, 3-((S)—N-Methyl-N-((-1-methylpyrrolidin-2-yl)methyl)sulfamoyl)-1-(1,2,3,5,6,7-hexahydro-s-indacen-4-yl)urea, sodium salt], the 50% inhibitory concentration (IC50) is less than 1000 nM in data set [2] (setting [4]) and less than 500 nM in data set [3] (setting [5]).
